In US11007194B2, “Method of treating a proliferative disease” (Array BioPharma Inc., priority 2011, dated 2021):

Tested on: Hmex1906 primary human melanoma tumors
Assay: Hmex1906 primary human melanoma xenograft in nude mice, emergence of resistance under continuous vs intermittent dosing
Assay type: in vivo
Conditions: 5 mg/kg bid
Description: Hmex1906 primary human melanoma tumors are implanted at passage 3 into nude mice. The mice were monitored until the implanted tumors reached 200-400 mm^3. Once this size is reached, the mice are dosed bid with 5 mg/kg of a Raf inhibitor (Compound of Formula II) for 4 weeks. Some of the mice continue treatment while others are subject to an intermittent treatment schedule of 4 weeks of treatment and 2 weeks of drug holiday.

**Q.** With COC(=O)N[C@@H](C)CNc1nccc(-c2cn(C(C)C)nc2-c2cc(Cl)cc(NS(C)(=O)=O)c2F)n1 [Compound of Formula II] as the compound, how does the “emergence of resistance to the BRAF inhibitor” value (continuous dosing, nude mice with Hmex1906 tumors (200-400 mm^3 at start)) read?
**A.** The value was “Resistance emerged in all mice”.

**Q.** What about the “emergence of resistance to the BRAF inhibitor” value (intermittent schedule: 4 weeks of treatment and 2 weeks of drug holiday, nude mice with Hmex1906 tumors, 5 mg/kg) of the same compound?
**A.** The value was “no evidence of resistance”.

**Q.** And the “emergence of resistance to the BRAF inhibitor” value (intermittent schedule: 4 weeks of treatment and 2 weeks of drug holiday, nude mice with Hmex1906 tumors, listed as BRAF inhibitor of formula II, 5 mg/kg)?
**A.** Its value is “delays or prevents the onset of resistance”.
